Values joined by “and” are separate entries in the source; they are usually repeats but may differ in a detail not shown here. Equal values may be shown once.
Experiments:
Genome polyprotein [1] = target: T1, Genome polyprotein (dengue virus type 2, UniProt P29990); assay type: functional, Thailand/16681/1984
Genome polyprotein [2] = target: T1, Genome polyprotein; assay type: functional, Thailand/16681/1984; remark: listed apart in the source

T1 sequence (P29990 1346-1475 limits assumed): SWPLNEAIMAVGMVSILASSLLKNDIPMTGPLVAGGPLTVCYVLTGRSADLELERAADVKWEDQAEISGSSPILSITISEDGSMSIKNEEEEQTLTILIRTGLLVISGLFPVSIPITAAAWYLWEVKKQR
T1 sequence (P29990 1476-2093 limits assumed): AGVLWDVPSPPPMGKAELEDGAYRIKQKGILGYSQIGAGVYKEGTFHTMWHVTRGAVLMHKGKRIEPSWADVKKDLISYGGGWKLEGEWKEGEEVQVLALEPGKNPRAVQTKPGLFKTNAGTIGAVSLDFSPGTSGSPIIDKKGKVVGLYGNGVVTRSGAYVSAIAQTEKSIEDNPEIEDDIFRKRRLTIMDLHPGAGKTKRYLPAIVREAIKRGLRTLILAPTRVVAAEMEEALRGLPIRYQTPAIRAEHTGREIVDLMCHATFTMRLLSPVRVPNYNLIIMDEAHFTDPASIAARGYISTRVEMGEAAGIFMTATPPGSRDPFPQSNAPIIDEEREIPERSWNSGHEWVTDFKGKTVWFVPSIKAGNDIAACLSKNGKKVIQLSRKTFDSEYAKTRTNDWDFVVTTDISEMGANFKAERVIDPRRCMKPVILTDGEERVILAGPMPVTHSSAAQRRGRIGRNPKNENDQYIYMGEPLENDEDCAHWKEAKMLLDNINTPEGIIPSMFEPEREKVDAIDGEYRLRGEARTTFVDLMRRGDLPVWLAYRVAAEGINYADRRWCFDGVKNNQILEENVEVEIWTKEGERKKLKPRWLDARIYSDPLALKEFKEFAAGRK

| SMILES | IC50 (Genome polyprotein [1]) | IC50 (Genome polyprotein [2]) |
| --- | --- | --- |
| CN1CCC([C@H]2CCCN(C(=O)Nc3ccc4c(c3)CNC4)C2)CC1 | > 100 µM | > 99.5 µM |
| Cc1cc(C(=O)Nc2ccc3c(c2)CNC3)c2cnn(C)c2n1 | > 100 µM | > 99.5 µM |
| O=C(NC[C@H]1CCCO1)[C@H](Nc1ccc2c(c1)CNC2)c1cc(Cl)cc2[nH]ncc12 | > 100 µM | > 99.5 µM |
| Cc1cccc(CNc2ccc(Cl)cc2C(=O)Nc2ccc3c(c2)CNC3)n1 | > 100 µM | > 99.5 µM |
| N#Cc1cc(Cl)cc(C(=O)Nc2ccc3c(c2)CNC3)c1 | > 100 µM | > 99.5 µM |
| Cn1cc2cc(Cl)cc(C(=O)Nc3ccc4c(c3)CNC4)c2n1 | 69.9 µM and > 100 µM | > 99.5 µM |
| O=C(Nc1ccc2c(c1)CNC2)c1cc(Cl)cc2nccnc12 | 77.9 µM | 73.5 µM |
| O=C(Nc1ccc2c(c1)CNC2)c1nc2ccccc2s1 | 87.8 µM | > 99.5 µM |
| CCc1ncc(Cl)cc1C(=O)Nc1ccc2c(c1)CNC2 | > 100 µM | > 99.5 µM |
| N#CCCNC(=O)[C@H](Nc1ccc2c(c1)CNC2)c1cc(Cl)cc(C2CC2)c1 | > 100 µM | > 99.5 µM |
| O=C(Nc1ccc2c(c1)CNC2)c1cc(Br)cc2[nH]c([C@H]3CCOC3)nc12 | > 100 µM | 98.5 µM |
| CNC(=O)[C@H](Nc1ccc2c(c1)CNC2)c1cc(Cl)cc(C2CC2)c1 | > 100 µM | > 99.5 µM |
| N#C[C@H](Nc1ccc2c(c1)CNC2)c1cc(Cl)cc(C2CC2)c1 | > 100 µM | > 99.5 µM |
| CCCN1C(=O)[C@](Nc2ccc3c(c2)CNC3)(C(N)=O)c2cc(Cl)ccc21 | > 100 µM | > 99.5 µM |
| NS(=O)(=O)c1cc(Cl)cc(C(=O)Nc2ccc3c(c2)CNC3)c1 | > 100 µM | > 99.5 µM |
| O=C(NC1CCOCC1)[C@H](Nc1ccc2c(c1)CNC2)c1cc(Cl)cc(C2CC2)c1 | > 100 µM | > 99.5 µM and 37.7 µM and 56.5 µM |
| O=C(Nc1ccc2c(c1)CNC2)c1cc2ccccc2[nH]1 | > 100 µM | > 99.5 µM |
| CCc1cc(Cl)cc(C(=O)Nc2ccc3c(c2)CNC3)c1 | > 100 µM | > 99.5 µM |

| SMILES | IC50 (Genome polyprotein [1]) | IC50 (Genome polyprotein [2]) |
| --- | --- | --- |
| Cn1cc(CCc2nc3c(C(=O)Nc4ccc5c(c4)CNC5)cc(Cl)cc3[nH]2)cn1 | 19.4 µM and 21.6 µM | 32.5 µM |
| O=C(Nc1cnc2c(c1)CNCC2)c1cc(Cl)cc2[nH]ncc12 | > 100 µM | > 99.5 µM |
| O=C(Nc1ccc2c(c1)CNC2)c1cc(Cl)ccc1OCC(F)(F)F | > 100 µM | > 99.5 µM |
| O=C(Nc1ccc2c(c1)CNC2)c1cc(Cl)nc2[nH]ncc12 | > 100 µM | > 99.5 µM |
| Cc1c(C(=O)Nc2cc(CN(C)C)ccn2)cc(C2CC2)n1C | > 100 µM | > 99.5 µM |
| NCCCc1ccnc(NC(=O)c2cnn3c2CCC3)c1 | > 100 µM | > 99.5 µM |
| CCS(=O)(=O)c1ccc(Cl)cc1C(=O)Nc1ccc2c(c1)CNC2 | > 100 µM | > 99.5 µM |
| O=C(NCC1CCOCC1)[C@H](Nc1ccc2c(c1)CNC2)c1cc(Cl)cc2[nH]ncc12 | > 100 µM | > 99.5 µM |
| O=C(Nc1ccc2c(c1)CNC2)c1ccc2scnc2c1 | 41.5 µM and 45.1 µM | 23.2 µM and 10.6 µM |
| O=C(Nc1ccc2c[nH]nc2c1)c1cc(Cl)cc2[nH]ncc12 | > 100 µM | > 99.5 µM |
| COc1ccc(CN2Cc3cc(NC(=O)c4cc(Cl)cc5[nH]ncc45)cc(Br)c3C2)cc1 | > 100 µM | > 99.5 µM |
| COCCN(C)Cc1ccnc(NC(=O)c2cc(C3CC3)n(C)c2C)c1 | > 100 µM | > 99.5 µM |
| O=C(Nc1ccc2c(c1)CNC2)N1CC(F)(F)CC2(CCC2)C1 | > 100 µM | > 99.5 µM |
| NCCCc1ccnc(NC(=O)c2nnc(C3CC3)s2)c1 | > 100 µM | > 99.5 µM |
| Cc1ccc(C(=O)Nc2ccc3c(c2)CNC3)c2[nH]ncc12 | > 100 µM | > 99.5 µM |
| N#C[C@H](Nc1ccc2c(c1)CNC2)c1cccc2c1CCNC2=O | > 100 µM | > 99.5 µM |
| CC1([C@H]2CCCN(C(=O)Nc3ccc4c(c3)CNC4)C2)CC1 | > 100 µM | > 99.5 µM |

Source: ChEMBL document CHEMBL5604063, “ASAP - DENV-2 NS2B-NS3 protease fluorescence dose response” (2024)
